Results: the supplement of paper PMC10307832

Assays:
Assay in all cases: relative viability (nuclei count vs DMSO), 5 days (fraction); higher = more cells survive
MK-2206 + Luminespib = compound: NC1(c2ccc(-c3nc4ccn5c(=O)[nH]nc5c4cc3-c3ccccc3)cc2)CCC1 [MK-2206] + CCNC(=O)c1noc(-c2cc(C(C)C)c(O)cc2O)c1-c1ccc(CN2CCOCC2)cc1 [Luminespib] (partner 0.01 µM)
How it was run: (§1)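 Each reported value is a median over duplicate plates. It expresses relative viability: treated-well nuclei count divided by vehicle-well nuclei count. Lung cancer cell lines in 1536-well plates were dosed by pin tool a day after seeding, alone with one drug or with a fixed anchor-drug dose plus five library-drug doses (not always all listed) in √10 steps, and nuclei were counted after 5 days.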

Pictilisib + Tozasertib = compound: CS(=O)(=O)N1CCN(Cc2cc3nc(-c4cccc5[nH]ncc45)nc(N4CCOCC4)c3s2)CC1 [Pictilisib] + Cc1cc(Nc2cc(N3CCN(C)CC3)nc(Sc3ccc(NC(=O)C4CC4)cc3)n2)n[nH]1 [Tozasertib] (partner 0.1 µM)
How it was run: as §1

MK-2206 + Dasatinib = compound: NC1(c2ccc(-c3nc4ccn5c(=O)[nH]nc5c4cc3-c3ccccc3)cc2)CCC1 [MK-2206] + Cc1nc(Nc2ncc(C(=O)Nc3c(C)cccc3Cl)s2)cc(N2CCN(CCO)CC2)n1 [Dasatinib] (partner 0.075 µM)
How it was run: as §1

MK-2206 + Alpelisib = compound: NC1(c2ccc(-c3nc4ccn5c(=O)[nH]nc5c4cc3-c3ccccc3)cc2)CCC1 [MK-2206] + Cc1nc(NC(=O)N2CCC[C@H]2C(N)=O)sc1-c1ccnc(C(C)(C)C(F)(F)F)c1 [Alpelisib] (partner 2 µM)
How it was run: as §1

Pictilisib + Olaparib = compound: CS(=O)(=O)N1CCN(Cc2cc3nc(-c4cccc5[nH]ncc45)nc(N4CCOCC4)c3s2)CC1 [Pictilisib] + O=C(c1cc(Cc2n[nH]c(=O)c3ccccc23)ccc1F)N1CCN(C(=O)C2CC2)CC1 [Olaparib] (partner 8 µM)
How it was run: as §1

Row | Cell Line | relative viability (MK-2206 + Luminespib; first compound 0.01 µM) | relative viability (MK-2206 + Luminespib; first compound 0.03162 µM) | relative viability (MK-2206 + Luminespib; first compound 0.3162 µM) | relative viability (MK-2206 + Luminespib; first compound 1 µM) | relative viability (Pictilisib + Tozasertib; first compound 0.02 µM) | relative viability (Pictilisib + Tozasertib; first compound 0.06325 µM) | relative viability (Pictilisib + Tozasertib; first compound 0.6325 µM) | relative viability (Pictilisib + Tozasertib; first compound 2 µM) | relative viability (MK-2206 + Dasatinib; first compound 0.01 µM) | relative viability (MK-2206 + Dasatinib; first compound 0.03162 µM) | relative viability (MK-2206 + Dasatinib; first compound 0.3162 µM) | relative viability (MK-2206 + Dasatinib; first compound 1 µM) | relative viability (MK-2206 + Alpelisib; first compound 0.01 µM) | relative viability (MK-2206 + Alpelisib; first compound 0.03162 µM) | relative viability (MK-2206 + Alpelisib; first compound 0.3162 µM) | relative viability (MK-2206 + Alpelisib; first compound 1 µM) | relative viability (Pictilisib + Olaparib; first compound 0.02 µM) | relative viability (Pictilisib + Olaparib; first compound 0.06325 µM) | relative viability (Pictilisib + Olaparib; first compound 0.6325 µM) | relative viability (Pictilisib + Olaparib; first compound 2 µM)
1 | LXF-289 | 0.661 | 0.722 | 0.728 | 0.771 | 0.224 | 0.215 | 0.155 | 0.0896 | 0.212 | 0.251 | 0.254 | 0.203 | 1.06 | 1.09 | 1.02 | 1 | 1.1 | 1.14 | 1.03 | 0.631
2 | NCI-H1792 | 0.467 | 0.455 | 0.473 | 0.394 | – | – | – | – | 0.758 | 0.845 | 0.913 | 0.819 | 0.673 | 0.652 | 0.706 | 0.773 | 0.386 | 0.294 | 0.261 | 0.0715
3 | A549 | – | – | – | – | – | – | – | – | – | – | – | – | 0.841 | 0.791 | 0.534 | 0.529 | 0.441 | 0.355 | 0.283 | 0.211
4 | ChaGo-K-1 | 0.668 | 0.661 | 0.541 | 0.679 | 0.227 | 0.21 | 0.161 | 0.17 | 0.61 | 0.721 | 0.55 | 0.447 | – | – | – | – | 0.44 | 0.381 | 0.5 | 0.332
5 | NCI-H2342 | 0.751 | 0.655 | 0.77 | 0.677 | 0.46 | 0.474 | 0.409 | 0.276 | 0.369 | 0.296 | 0.282 | 0.276 | – | – | – | – | 0.446 | 0.379 | 0.406 | 0.242
6 | NCI-H1648 | – | – | – | – | 0.377 | 0.36 | 0.455 | 0.246 | – | – | – | – | – | – | – | – | 0.701 | 0.561 | 0.355 | 0.264
7 | NCI-H1563 | 0.528 | 0.518 | 0.577 | 0.477 | – | – | – | – | 0.492 | 0.449 | 0.406 | 0.407 | 0.934 | 0.764 | 0.695 | 0.656 | – | – | – | –
8 | NCI-H522 | 1.28 | 1.31 | 1.17 | 1.19 | 0.52 | 0.542 | 0.444 | 0.397 | 0.98 | 0.842 | 0.857 | 0.894 | – | – | – | – | 0.619 | 0.663 | 0.561 | 0.493
9 | NCI-H1623 | 0.499 | 0.526 | 0.492 | 0.458 | 0.378 | 0.364 | 0.381 | 0.272 | 0.518 | 0.471 | 0.556 | 0.423 | – | – | – | – | – | – | – | –
10 | NCI-H1299 | – | – | – | – | – | – | – | – | – | – | – | – | 1.03 | 1.05 | 1.03 | 1.03 | 0.996 | 1.01 | 1.03 | 0.858
11 | HCC-366 | – | – | – | – | 0.19 | 0.0882 | 0.0364 | 0.0156 | 0.696 | 0.68 | 0.434 | 0.222 | 0.526 | 0.48 | 0.244 | 0.212 | 0.401 | 0.357 | 0.199 | 0.077
12 | Calu-6 | – | – | – | – | – | – | – | – | – | – | – | – | 1.13 | 1.01 | 0.994 | 0.909 | 0.656 | 0.554 | 0.589 | 0.519
